A value given as a limit tells only on which side of the number the result lay.

Common to all, as to settings: human
In data set [1] the test system is Hepatotoxicity. The data set is described as follows: FDA HLAED, liver enzyme composite activity.
For data set [2], the system named is Hepatotoxicity. The data set can be described thus: FDA HLAED, gamma-glutamyl transferase (GGT) increase.
Data set [3] deals with Hepatotoxicity. The data set is described as follows: FDA HLAED, serum glutamic pyruvic transaminase (SGPT) increase.
For data set [4], the system named is Hepatotoxicity. The data set is described as follows: FDA HLAED, alkaline phosphatase increase.
Data set [5] concerns Hepatotoxicity. The data set can be described thus: FDA HLAED, lactate dehydrogenase (LDH) increase.
Data set [6] concerns Hepatotoxicity. The data set is described as follows: FDA HLAED, serum glutamic oxaloacetic transaminase (SGOT) increase.
For GGT Increase - Index Value in this document: reference of the scale not given here.
For LDH Increase - Index Value in this document: reference of the scale not given here.

On to `CN1CC[C@]23c4c5ccc(O)c4O[C@H]2C(=O)CC[C@H]3[C@H]1C5` [HYDROMORPHONE], for which, in data set [1], the “Composite Activity - Active” value is recorded as 0, the “Composite Activity - Marginal” value is listed as 0 and the “Composite Activity - Score” value was “Inactive”. In data set [2], the “GGT Increase - Activity Score” value is recorded as “Inactive”, the “GGT Increase - Index Value” is recorded as 0 and the “GGT Increase - Number of Reports” value is given as below 4. Further, in data set [3], the “SGPT Increase - Activity Score” value is “Inactive”, the “SGPT Increase - Index Value” was found to be 0 and the “SGPT Increase - Number of Reports” value is on record as below 4. Also, in data set [4], the “Alkaline Phosphatase Increase - Activity Score” value is “Inactive”, the “Alkaline Phosphatase Increase - Index Value” was 0 and the “Alkaline Phosphatase Increase - Number of Reports” value was below 4. In data set [5], the “LDH Increase - Activity Score” value is recorded as “Inactive”, the “LDH Increase - Index Value” is listed as 0 and the “LDH Increase - Number of Reports” value is reported as below 4. In data set [6], the “SGOT Increase - Activity Score” value is recorded as “Inactive”, the “SGOT Increase - Index Value” worked out at 0 and the “SGOT Increase - Number of Reports” value is given as below 4.
Regarding `CCCCCCCN(CC)CCCC(O)c1ccc(NS(C)(=O)=O)cc1` (configuration not stated) [IBUTILIDE], in data set [1], the “Composite Activity - Active” value was determined as 0, the “Composite Activity - Marginal” value stood at 0 and the “Composite Activity - Score” value is “Inactive”. In data set [2], the “GGT Increase - Activity Score” value is “Inactive”, the “GGT Increase - Index Value” is 0 and the “GGT Increase - Number of Reports” value was below 4. Also, in data set [3], the “SGPT Increase - Activity Score” value is given as “Inactive”, the “SGPT Increase - Index Value” came to 0 and the “SGPT Increase - Number of Reports” value is recorded as below 4. In data set [4], the “Alkaline Phosphatase Increase - Activity Score” value was “Inactive”, the “Alkaline Phosphatase Increase - Index Value” stood at 0 and the “Alkaline Phosphatase Increase - Number of Reports” value was below 4. Moreover, in data set [5], the “LDH Increase - Activity Score” value was “Inactive”, the “LDH Increase - Index Value” is 0 and the “LDH Increase - Number of Reports” value was below 4. Further, in data set [6], the “SGOT Increase - Activity Score” value was “Inactive”, the “SGOT Increase - Index Value” was 0 and the “SGOT Increase - Number of Reports” value is below 4.
As to `CC(=O)[C@]1(O)Cc2c(O)c3c(c(O)c2[C@@H](O[C@H]2C[C@H](N)[C@H](O)[C@H](C)O2)C1)C(=O)c1ccccc1C3=O` [IDARUBICIN], in data set [1], the “Composite Activity - Active” value came to 0, the “Composite Activity - Marginal” value is 0 and the “Composite Activity - Score” value was “Inactive”. For the same compound, in data set [2], the “GGT Increase - Activity Score” value is listed as “Inactive”, the “GGT Increase - Index Value” is 0 and the “GGT Increase - Number of Reports” value is below 4. Also, in data set [3], the “SGPT Increase - Activity Score” value was “Inactive”, the “SGPT Increase - Index Value” was 0 and the “SGPT Increase - Number of Reports” value is below 4. In data set [4], the “Alkaline Phosphatase Increase - Activity Score” value is “Inactive”, the “Alkaline Phosphatase Increase - Index Value” was determined as 0 and the “Alkaline Phosphatase Increase - Number of Reports” value is below 4. Further, in data set [5], the “LDH Increase - Activity Score” value is recorded as “Inactive”, the “LDH Increase - Index Value” was 0 and the “LDH Increase - Number of Reports” value is below 4. Further, in data set [6], the “SGOT Increase - Activity Score” value was “Inactive”, the “SGOT Increase - Index Value” came to 0 and the “SGOT Increase - Number of Reports” value was below 4.
In the case of `O=P1(NCCCl)OCCCN1CCCl` (configuration not stated) [IFOSFAMIDE], in data set [1], the “Composite Activity - Active” value is on record as 1, the “Composite Activity - Marginal” value turned out to be 0 and the “Composite Activity - Score” value is “Inactive”. Further, in data set [2], the “GGT Increase - Activity Score” value is listed as “Inactive”, the “GGT Increase - Index Value” came out at 0 and the “GGT Increase - Number of Reports” value was below 4. In data set [3], the “SGPT Increase - Activity Score” value is on record as “Inactive”, the “SGPT Increase - Index Value” is 7.5 and the “SGPT Increase - Number of Reports” value is below 4. In addition, in data set [4], the “Alkaline Phosphatase Increase - Activity Score” value is “Inactive”, the “Alkaline Phosphatase Increase - Index Value” is recorded as 5 and the “Alkaline Phosphatase Increase - Number of Reports” value is given as below 4. Moreover, in data set [5], the “LDH Increase - Activity Score” value is “Inactive”, the “LDH Increase - Index Value” turned out to be 7.5 and the “LDH Increase - Number of Reports” value was below 4. Besides, in data set [6], the “SGOT Increase - Activity Score” value is “Active”, the “SGOT Increase - Index Value” amounted to 17.5 and the “SGOT Increase - Number of Reports” value is “>= 4”.
Turning to `Nc1cc(-c2ccncc2)c[nH]c1=O` [INAMRINONE], in data set [1], the “Composite Activity - Active” value was 0, the “Composite Activity - Marginal” value stood at 0 and the “Composite Activity - Score” value was “Inactive”. Also, in data set [2], the “GGT Increase - Activity Score” value is “Inactive”, the “GGT Increase - Index Value” came to 0 and the “GGT Increase - Number of Reports” value is listed as below 4. Also, in data set [3], the “SGPT Increase - Activity Score” value is listed as “Inactive”, the “SGPT Increase - Index Value” came out at 4.4 and the “SGPT Increase - Number of Reports” value was below 4. Also, in data set [4], the “Alkaline Phosphatase Increase - Activity Score” value was “Inactive”, the “Alkaline Phosphatase Increase - Index Value” is reported as 2.2 and the “Alkaline Phosphatase Increase - Number of Reports” value is below 4. For the same compound, in data set [5], the “LDH Increase - Activity Score” value is on record as “Inactive”, the “LDH Increase - Index Value” was 2.2 and the “LDH Increase - Number of Reports” value was below 4. In data set [6], the “SGOT Increase - Activity Score” value is reported as “Inactive”, the “SGOT Increase - Index Value” amounted to 6.6 and the “SGOT Increase - Number of Reports” value is recorded as below 4.
`CC1Cc2ccccc2N1NC(=O)c1ccc(Cl)c(S(N)(=O)=O)c1` (configuration not stated) [INDAPAMIDE]: in data set [1], the “Composite Activity - Active” value was determined as 0, the “Composite Activity - Marginal” value is 0 and the “Composite Activity - Score” value is listed as “Inactive”. Besides, in data set [2], the “GGT Increase - Activity Score” value is recorded as “Inactive”, the “GGT Increase - Index Value” turned out to be 0 and the “GGT Increase - Number of Reports” value is recorded as below 4. Moreover, in data set [3], the “SGPT Increase - Activity Score” value was “Inactive”, the “SGPT Increase - Index Value” turned out to be 0.5 and the “SGPT Increase - Number of Reports” value was below 4. In addition, in data set [4], the “Alkaline Phosphatase Increase - Activity Score” value was “Inactive”, the “Alkaline Phosphatase Increase - Index Value” was determined as 0.5 and the “Alkaline Phosphatase Increase - Number of Reports” value is below 4. In data set [5], the “LDH Increase - Activity Score” value is listed as “Inactive”, the “LDH Increase - Index Value” came to 0.5 and the “LDH Increase - Number of Reports” value is listed as below 4. Besides, in data set [6], the “SGOT Increase - Activity Score” value was “Inactive”, the “SGOT Increase - Index Value” is listed as 1 and the “SGOT Increase - Number of Reports” value is listed as below 4.
`CC(=O)N(CC(O)CN(C(C)=O)c1c(I)c(C(=O)NCC(O)CO)c(I)c(C(=O)NCC(O)CO)c1I)c1c(I)c(C(=O)NCC(O)CO)c(I)c(C(=O)NCC(O)CO)c1I` (configuration not stated) [IODIXANOL]: in data set [1], the “Composite Activity - Active” value is on record as 0, the “Composite Activity - Marginal” value is listed as 0 and the “Composite Activity - Score” value is “Inactive”. Further, in data set [2], the “GGT Increase - Activity Score” value is “Inactive”, the “GGT Increase - Index Value” amounted to 0 and the “GGT Increase - Number of Reports” value is below 4. Besides, in data set [3], the “SGPT Increase - Activity Score” value is “Inactive”, the “SGPT Increase - Index Value” is 0 and the “SGPT Increase - Number of Reports” value is recorded as below 4. For the same compound, in data set [4], the “Alkaline Phosphatase Increase - Activity Score” value was “Inactive”, the “Alkaline Phosphatase Increase - Index Value” was determined as 0 and the “Alkaline Phosphatase Increase - Number of Reports” value was below 4. For the same compound, in data set [5], the “LDH Increase - Activity Score” value is “Inactive”, the “LDH Increase - Index Value” is listed as 0 and the “LDH Increase - Number of Reports” value is on record as below 4. In addition, in data set [6], the “SGOT Increase - Activity Score” value is recorded as “Inactive”, the “SGOT Increase - Index Value” amounted to 0 and the “SGOT Increase - Number of Reports” value is reported as below 4.
In the case of `CC(=O)N(CC(O)CO)c1c(I)c(C(=O)NCC(O)CO)c(I)c(C(=O)NCC(O)CO)c1I` (configuration not stated) [IOHEXOL], in data set [1], the “Composite Activity - Active” value stood at 0, the “Composite Activity - Marginal” value is on record as 0 and the “Composite Activity - Score” value is “Inactive”. Further, in data set [2], the “GGT Increase - Activity Score” value is given as “Inactive”, the “GGT Increase - Index Value” is recorded as 0 and the “GGT Increase - Number of Reports” value is below 4. In data set [3], the “SGPT Increase - Activity Score” value was “Inactive”, the “SGPT Increase - Index Value” turned out to be 0 and the “SGPT Increase - Number of Reports” value is below 4. Moreover, in data set [4], the “Alkaline Phosphatase Increase - Activity Score” value was “Inactive”, the “Alkaline Phosphatase Increase - Index Value” was 144.9 and the “Alkaline Phosphatase Increase - Number of Reports” value was below 4. Moreover, in data set [5], the “LDH Increase - Activity Score” value is on record as “Inactive”, the “LDH Increase - Index Value” is recorded as 144.9 and the “LDH Increase - Number of Reports” value is listed as below 4. For the same compound, in data set [6], the “SGOT Increase - Activity Score” value was “Inactive”, the “SGOT Increase - Index Value” is on record as 144.9 and the “SGOT Increase - Number of Reports” value was below 4.
Regarding `C[C@H](O)C(=O)Nc1c(I)c(C(=O)NC(CO)CO)c(I)c(C(=O)NC(CO)CO)c1I` [IOPAMIDOL], in data set [1], the “Composite Activity - Active” value is on record as 1, the “Composite Activity - Marginal” value stood at 0 and the “Composite Activity - Score” value is “Inactive”. Further, in data set [2], the “GGT Increase - Activity Score” value was “Inactive”, the “GGT Increase - Index Value” came to 0 and the “GGT Increase - Number of Reports” value is below 4. Moreover, in data set [3], the “SGPT Increase - Activity Score” value is on record as “Inactive”, the “SGPT Increase - Index Value” is on record as 0 and the “SGPT Increase - Number of Reports” value was below 4. Further, in data set [4], the “Alkaline Phosphatase Increase - Activity Score” value was “Inactive”, the “Alkaline Phosphatase Increase - Index Value” is reported as 0 and the “Alkaline Phosphatase Increase - Number of Reports” value is reported as below 4. Also, in data set [5], the “LDH Increase - Activity Score” value is given as “Active”, the “LDH Increase - Index Value” turned out to be 1579 and the “LDH Increase - Number of Reports” value is listed as below 4. For the same compound, in data set [6], the “SGOT Increase - Activity Score” value was “Inactive”, the “SGOT Increase - Index Value” stood at 526.3 and the “SGOT Increase - Number of Reports” value was below 4.

(Values after ChEMBL document CHEMBL1697781, “Assessment of the health effects of chemicals in humans: II. Construction of an adverse effects database for QSAR modeling” (Curr Drug Discov Technol, 2004).)
